Earlier results in patent EP4643845A1, “COSMETIC COMPOSITION” (Shiseido Company, Ltd., priority 2022, dated 2024).
*1 amine or outer side, *2 acyl side, *3 side chain or, on linkers, in order; H or OH if unused. Where a SMILES comes first, the peptide text is derived from it. Bridges are numbered along the chain shown (N, C = ends). X1 = CC(C)CCCCCCCCCC(CC(=O)[*:1])O[*:2]

Conditions: according to relevant reports

critical micelle concentration (CMC): 0.0003 % (mass fraction)
SMILES: CC(C)CCCCCCCCCC1CC(=O)NC(CCC(=O)O)C(=O)NC(CC(C)C)C(=O)NC(CC(C)C)C(=O)NC(C(C)C)C(=O)NC(CC(=O)O)C(=O)NC(CC(C)C)C(=O)NC(CC(C)C)C(=O)O1 (stereo not shown) [formula (1)] (ELLVDLL; linker N-C via X1; configuration not given here)
